Measured values published in patent US11453666B2, “Autotaxin inhibitory compounds” (Cancer Research Technology Limited, priority 2015, dated 2022).
Where two headings read alike, the source gives them in different places.

Molecular target: human recombinant ATX (Homo sapiens, UniProt Q13822)
Assay: Autotaxin (ATX) activity Quanta Red assay
Assay type: biochemical
How it was run: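 Recombinant human ATX reaction stopped after 2 h with Quanta Red stop solution; fluorescence read at […]. Controls with DMSO, with and without ATX; IC50 in duplicate.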

[1] = read-out: Activity (ATX activity, Quanta Red assay; IC50)
[2] = Table 2: additional compounds tested for ATX activity (Quanta Red Assay), read-out: Activity
[3] = human recombinant ATX 0.8 μg/mL, 2 hours at room temperature, IC50 determined in duplicate, read-out: Activity (ATX activity, Quanta Red assay; IC50)

| SMILES | IC50 [1] [nM] | also measured |
| --- | --- | --- |
| C[C@H](NC(=O)CCc1nc2cccnc2n1Cc1ccc(F)c(F)c1)c1ccc(F)cc1 [Example 95, 3-[3-(3,4-Difluoro-benzyl)-3H-imidazo[4,5-b]pyridin-2-yl]-N-[(S)-1-(4-fluoro-phenyl)-ethyl]-propionamide] | 26 | – |
| CSc1ccc(CCNC(=O)CCc2nc3cccnc3n2Cc2ccccc2)cc1 [Example 230, 3-(3-Benzyl-3H-imidazo[4,5-b]pyridin-2-yl)-N-[2-(4-methylsulfanyl-phenyl)-ethyl]-propionamide] | – | IC50 [2]: 688 nM |
| C[C@H](NC(=O)COc1nc2cccnc2n1Cc1ccc(F)cc1)c1ccc(F)cc1 [Example 153, 2-[3-(4-fluoro-benzyl)-3H-imidazo[4,5-b]pyridin-2-yloxy]-N—[(S)-1-(4-fluoro-phenyl)-ethyl]-acetamide] | – | IC50 [3]: 39 nM |
| C[C@H](NC(=O)CCc1nc2cccnc2n1Cc1ccc(F)cc1)c1ccc(N2CCCCC2)cc1 [Example 186, 3-[3-(4-Fluoro-benzyl)-3H-imidazo[4,5-b]pyridin-2-yl]-N-[(S)-1-(4-piperidin-1-yl-phenyl)-ethyl]-propionamide] | 13 | – |
| Cc1ccccc1CNC(=O)CCc1nc2cccnc2n1Cc1ccccc1 [Example 5, 3-(3-Benzyl-3H-imidazo[4,5-b]pyridin-2-yl)-N-(2-methyl-benzyl)-propionamide] | 854 | – |
| C[C@H](NC(=O)CCc1nc2ccncc2n1Cc1ccc(F)cc1)c1ccccc1 [Example 130, 3-[3-(4-Fluoro-benzyl)-3H-imidazo[4,5-c]pyridin-2-yl]-N-((S)-1-phenyl-ethyl)-propionamide] | 21 | – |
| O=C(CCc1nc2cccnc2n1Cc1ccc(OC(F)(F)F)cc1)NC(CO)c1ccc(F)cc1 (stereo not shown) [Example 15, N-[1-(4-Fluoro-phenyl)-2-hydroxy-ethyl]-3-[3-(4-trifluoromethoxy-benzyl)-3H-imidazo[4,5-b]pyridin-2-yl]-propionamide] | 2 | – |
| C[C@@H](c1ccc(F)cc1)n1c(CCC(=O)N[C@H](Cc2ccccc2)C(=O)O)nc2cccnc21 [Example 201, (R)-2-(3-{3-[(S)-1-(4-Fluoro-phenyl)-ethyl]-3H-imidazo[4,5-b]pyridin-2-yl}-propionylamino)-3-phenyl-propionic acid] | 598 | – |
| C[C@H](NC(=O)CSc1nc2cccnc2n1Cc1ccc(OC(F)(F)F)cc1)c1ccc(Cl)cc1 [Example 144, N-[(S)-1-(4-Chloro-phenyl)-ethyl]-2-[3-(4-trifluoromethoxy-benzyl)-3H-imidazo[4,5-b]pyridin-2-ylsulfanyl]-acetamide] | 2 | – |
| C[C@H](NC(=O)NCc1nc2cccnc2n1Cc1ccc(F)cc1)c1ccccc1 [Example 161, 1-[3-(4-fluoro-benzyl)-3H-imidazo[4,5-b]pyridin-2-ylmethyl]-3-((S)-1-phenyl-ethyl)-urea] | 115 | – |
| C[C@H](NC(=O)CCc1nc2cccnc2n1Cc1ccc(F)cc1)c1ccc(Br)cc1 [Example 83, N—[(S)-1-(4-bromo-phenyl)-ethyl]-3-[3-(4-fluoro-benzyl)-3H-imidazo[4,5-b]pyridin-2-yl]-propionamide] | 2 | – |
| C[C@@H](NC(=O)CCc1nc2cccnc2n1Cc1ccccc1)c1ccccc1 [Example 4, 3-(3-Benzyl-3H-imidazo[4,5-b]pyridin-2-yl)-N-((R)-1-phenyl-ethyl)-propionamide] | – | IC50 [3]: 2630 nM |
| O=C(CSc1nc2cccnc2n1Cc1ccc(F)cc1)N[C@@H](CO)c1ccccc1 [Example 143, 2-[3-(4-Fluoro-benzyl)-3H-imidazo[4,5-b]pyridin-2-ylsulfanyl]-N-((R)-2-hydroxy-1-phenyl-ethyl)-acetamide] | 1 | – |
| CC(NC(=O)CCc1nc2cccnc2n1Cc1ccc(OC(F)(F)F)cc1)C1CCN(C(=O)OC(C)(C)C)CC1 (stereo not shown) [Example 43, 4-(1-{3-[3-(4-Trifluoromethoxy-benzyl)-3H-imidazo[4,5-b]pyridin-2-yl]-propionylamino}-ethyl)-piperidine-1-carboxylic acid tert-butyl ester] | 11 | – |
| COc1ccc(Cn2c(CCC(=O)N[C@H](C)c3ccccc3)nc3cccnc32)cc1 [Example 112, 3-[3-(4-Methoxy-benzyl)-3H-imidazo[4,5-b]pyridin-2-yl]-N-((R)-1-phenyl-ethyl)-propionamide] | 1060 | – |
| C[C@H](NC(=O)CCc1nc2cccnc2n1Cc1ccc(F)cc1)c1ccccc1 [Example 87, 3-[3-(4-Fluoro-benzyl)-3H-imidazo[4,5-b]pyridin-2-yl]-N-((S)-1-phenyl-ethyl)-propionamide] | 6 | – |
| CC(C)(C)OC(=O)N1CCC(CNC(=O)CCc2nc3cccnc3n2Cc2ccc(OC(F)(F)F)cc2)CC1 [Example 51, 4-({3-[3-(4-Trifluoromethoxy-benzyl)-3H-imidazo[4,5-b]pyridin-2-yl]-propionylamino}-methyl)-piperidine-1-carboxylic acid tert-butyl ester] | 22 | – |

| SMILES | IC50 [1] [nM] | also measured |
| --- | --- | --- |
| C[C@H](NC(=O)CCc1nc2ccncc2n1Cc1ccc(OC(F)(F)F)cc1)c1ccc(Cl)cc1 [Example 122, N—[(S)-1-(4-chloro-phenyl)-ethyl]-3-[3-(4-trifluoromethoxy-benzyl)-3H-imidazo[4,5-c]pyridin-2-yl]-propionamide] | – | IC50 [3]: 3 nM |
| O=C(CCc1nc2cccnc2n1Cc1ccc(OC(F)(F)F)cc1)NCC1CCCCC1 [Example 42, N-Cyclohexylmethyl-3-[3-(4-trifluoromethoxy-benzyl)-3H-imidazo[4,5-b]pyridin-2-yl]-propionamide] | 11 | – |
| COc1ccc(CNC(=O)CCc2nc3cc(C)cnc3n2Cc2ccc(F)cc2)cc1 [Example 109, 3-[3-(4-Fluoro-benzyl)-6-methyl-3H-imidazo[4,5-b]pyridin-2-yl]-N-(4-methoxy-benzyl)-propionamide] | 185 | – |
| C[C@H](NC(=O)CCc1nc2cccnc2n1Cc1ccc(F)c(F)c1)c1ccc(N2CC[C@@H](O)C2)cc1 [Example 190, 3-[3-(3,4-Difluoro-benzyl)-3H-imidazo[4,5-b]pyridin-2-yl]-N-{(S)-1-[4-((R)-3-hydroxy-pyrrolidin-1-yl)-phenyl]-ethyl}-propionamide] | 20 | – |
| CC(NC(=O)CCc1nc2cccnc2n1Cc1ccc(OC(F)(F)F)cc1)C1CCOCC1 (stereo not shown) [Example 56, N-[1-(Tetrahydro-pyran-4-yl)-ethyl]-3-[3-(4-trifluoromethoxy-benzyl)-3H-imidazo[4,5-b]pyridin-2-yl]-propionamide] | 45 | – |
| CCN(CC)Cc1ccc([C@H](C)NC(=O)CCc2nc3cccnc3n2Cc2ccc(F)c(F)c2)cc1 [Example 207, N-[(S)-1-(4-Diethylaminomethyl-phenyl)-ethyl]-3-[3-(3,4-difluoro-benzyl)-3H-imidazo[4,5-b]pyridin-2-yl]-propionamide] | 25 | – |
| C[C@H](NC(=O)CCc1nc2cccnc2n1Cc1ccc(F)c(F)c1)c1ccc(N2CCOCC2)cc1 [Example 45, 3-[3-(3,4-Difluoro-benzyl)-3H-imidazo[4,5-b]pyridin-2-yl]-N-[(S)-1-(4-morpholin-4-yl-phenyl)-ethyl]-propionamide] | 17 | – |
| O=C(CCc1nc2cccnc2n1Cc1ccc(F)c(F)c1)N[C@H](Cc1ccccc1)C(=O)O [Example 198, (R)-2-{3-[3-(3,4-Difluoro-benzyl)-3H-imidazo[4,5-b]pyridin-2-yl]-propionylamino}-3-phenyl-propionic acid] | 37 | – |
| C[C@H](NC(=O)CCc1nc2cccnc2n1Cc1ccc(OC(F)(F)F)cc1)c1ccc(N2CCN(C)CC2)cc1 [Example 167, N—{(S)-1-[4-(4-methyl-piperazin-1-yl)-phenyl]-ethyl}-3-[3-(4-trifluoromethoxy-benzyl)-3H-imidazo[4,5-b]pyridin-2-yl]-propionamide] | 1 | – |
| O=C(CCc1nc2cccnc2n1Cc1ccc(F)cc1)NC(CO)c1ccc(OC(F)(F)F)cc1 (stereo not shown) [Example 33, 3-[3-(4-Fluoro-benzyl)-3H-imidazo[4,5-b]pyridin-2-yl]-N-[2-hydroxy-1-(4-trifluoromethoxy-phenyl)-ethyl]-propionamide] | 6 | – |
| Cc1cnc2c(c1)nc(CCC(=O)N[C@@H](C)c1ccc(Cl)cc1)n2Cc1ccc(OC(F)(F)F)cc1 [Example 211, N—[(S)-1-(4-chloro-phenyl)-ethyl]-3-[6-methyl-3-(4-trifluoromethoxy-benzyl)-3H-imidazo[4,5-b]pyridin-2-yl]-propionamide] | 7 | – |
| CC(Sc1nc2cccnc2n1Cc1ccc(OC(F)(F)F)cc1)C(=O)N[C@@H](CO)c1ccccc1 (stereo partly drawn) [Example 154, N—((R)-2-hydroxy-1-phenyl-ethyl)-2-[3-(4-trifluoromethoxy-benzyl)-3H-imidazo[4,5-b]pyridin-2-ylsulfanyl]-propionamide] | 11 | – |
| O=C(CCc1nc2cccnc2n1Cc1ccc(OC(F)(F)F)cc1)NCC1CCOCC1 [Example 62, N-(Tetrahydro-pyran-4-ylmethyl)-3-[3-(4-trifluoromethoxy-benzyl)-3H-imidazo[4,5-b]pyridin-2-yl]-propionamide] | 125 | – |
| C[C@H](NC(=O)CCc1nc2cccnc2n1Cc1ccc(OC(F)(F)F)cc1)c1ccc(N2CC[C@@H](N(C)C)C2)cc1 [Example 168, N-{(S)-1-[4-((R)-3-Dimethylamino-pyrrolidin-1-yl)-phenyl]-ethyl}-3-[3-(4-trifluoromethoxy-benzyl)-3H-imidazo[4,5-b]pyridin-2-yl]-propionamide] | 1 | – |
| O=C(CCc1nc2cccnc2n1Cc1ccc(F)c(F)c1)NC[C@H](O)c1ccccc1 [Example 67, 3-[3-(3,4-Difluoro-benzyl)-3H-imidazo[4,5-b]pyridin-2-yl]-N-((R)-2-hydroxy-2-phenyl-ethyl)-propionamide] | 169 | – |
| C[C@H](NC(=O)C[S+]([O-])c1nc2cccnc2n1Cc1ccc(OC(F)(F)F)cc1)c1ccc(F)cc1 (single isomer, unassigned) [Example 149] | – | IC50 [3]: 178 nM |
| O=C(CCc1nc2cccnc2n1Cc1ccccc1)NCc1cccc(Cl)c1 [Example 232, 3-(3-Benzyl-3H-imidazo[4,5-b]pyridin-2-yl)-N-(3-chloro-benzyl)-propionamide] | – | IC50 [2]: 596 nM |
